Marks after values point to notes of the source that are not given here.

Test [1] has as its target T1, hA1AR (Homo sapiens, UniProt P30542).
T1 sequence (P30542 1-326): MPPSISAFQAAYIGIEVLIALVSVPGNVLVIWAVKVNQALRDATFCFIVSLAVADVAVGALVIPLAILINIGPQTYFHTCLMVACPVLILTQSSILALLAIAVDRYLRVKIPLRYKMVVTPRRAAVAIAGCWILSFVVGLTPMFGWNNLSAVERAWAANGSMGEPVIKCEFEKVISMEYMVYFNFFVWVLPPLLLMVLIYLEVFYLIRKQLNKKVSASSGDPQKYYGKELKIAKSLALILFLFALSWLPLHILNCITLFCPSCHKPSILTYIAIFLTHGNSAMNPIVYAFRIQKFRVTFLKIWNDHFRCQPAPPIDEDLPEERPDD
To be noted: for agonist character at the A1AR (full / partial agonist): cyclic AMP assay, hA1AR.

Test [2] has as its target T1, hA1AR. In words: Radioligand binding at hA1AR, [3H]R-PIA, membranes of CHO cells. The settings on record: human orthologue more potent than rat.
The next test concerns the target A3AR. To be noted: read-out: Affinity Ki, A3; human unless noted; ref de Zwaart et al.[38]; cited from earlier work.
In another test the test system is rat A1AR. To be noted: ref Jacobson et al.[39]; cited from earlier work.
A further test has as its system rat A2AAR. The settings on record: ref Jacobson et al.[39]; cited from earlier work.
For another test, the target named is hA2AAR (Homo sapiens, UniProt P29274). In words: Stimulation of cyclic AMP production in A2AAR-expressing CHO cells. It counts as cell-based. To be noted: cyclic AMP assay.
Sequence of hA2AAR (P29274 whole entry): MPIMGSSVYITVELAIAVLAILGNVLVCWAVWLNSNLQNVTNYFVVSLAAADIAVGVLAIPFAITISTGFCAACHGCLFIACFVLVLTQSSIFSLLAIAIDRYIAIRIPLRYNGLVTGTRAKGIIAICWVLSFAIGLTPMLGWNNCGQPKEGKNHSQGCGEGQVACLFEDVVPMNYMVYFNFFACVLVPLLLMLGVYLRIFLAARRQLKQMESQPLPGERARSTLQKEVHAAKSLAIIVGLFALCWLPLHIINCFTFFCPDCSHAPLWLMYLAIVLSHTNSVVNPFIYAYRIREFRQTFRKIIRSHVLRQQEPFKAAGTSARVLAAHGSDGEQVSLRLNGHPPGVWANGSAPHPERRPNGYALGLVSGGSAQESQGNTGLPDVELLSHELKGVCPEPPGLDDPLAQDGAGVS

As for `CCNC(=O)[C@H]1O[C@@H](n2cnc3c(N)ncnc32)[C@H](O)[C@@H]1O` [Compound 1, 5′-N-ethylcarboxamidoadenosine, reference compound], the “Activation of A1, % of 1, 10 μM” value at hA1AR [1] (single point at 10 μM, effect of full agonist 1 = 100%, hA1AR CHO cells) is listed as 100 % of 1.
With `Nc1ncnc2c1ncn2[C@@H]1O[C@H](C(=O)NCC(F)(F)F)[C@@H](O)[C@H]1O` [Compound 5], the “agonist character at the A1AR (full / partial agonist)” value at hA1AR [1] is recorded as “partial agonists”. At hA1AR [2], the “difference between rat and human A1AR binding affinities” value is reported as “approximately 100 fold”.
As for `Nc1ncnc2c1ncn2[C@@H]1O[C@H](C(=O)NCCCl)[C@@H](O)[C@H]1O` [Compound 6, reference compound], on A3AR, the Ki (in general, a measure of affinity in units of concentration, obtained from inhibition or displacement) is 332 nM.
For `NCCNC(=O)[C@H]1O[C@@H](n2cnc3c(N)ncnc32)[C@H](O)[C@@H]1O` [Compound 11], in the test with rat A1AR, the “% inhibition, A1 (rat)” value is “(>10%, rat) ^e”. Further, the “% inhibition, A2A (rat)” value in the test with rat A2AAR was above 10%.
Take `Nc1ncnc2c1ncn2[C@@H]1O[C@H](C(=O)NC2CC2)[C@@H](O)[C@H]1O` [Compound 16, reference compound]: on hA1AR [1], the “agonist character at the A1AR (full / partial agonist)” value was “full agonists”. For the same molecule, the “agonist character at the A2AAR (full agonist)” value on hA2AAR is “full agonists”.
As for `Nc1ncnc2c1ncn2[C@@H]1O[C@H](C(=O)NC2CCC2)[C@@H](O)[C@H]1O` [Compound 18], the “agonist character at the A1AR (full / partial agonist)” value on hA1AR [1] is listed as “partial agonist”. The “agonist character at the A2AAR (full agonist)” value at hA2AAR is recorded as “full agonists”. Besides, the Ki at A3AR is 23 nM.
As to `Nc1ncnc2c1ncn2[C@@H]1O[C@H](C(=O)NC2CCCC2)[C@@H](O)[C@H]1O` [Compound 22], at hA1AR [1], the “agonist character at the A1AR (full / partial agonist)” value was “full agonists”. For the same molecule, at A3AR, the Ki was 32 nM.

These data come from article PMC3479662 (Journal of medicinal chemistry, 2012).
